The test system of one test is SARS-CoV 3CL^pro. The following applies: cited from earlier work.
For the next test, the target named is SARS-CoV-2 3CL^pro (Severe acute respiratory syndrome coronavirus 2, UniProt P0DTD1). Nature of the test: biochemical. Type of test: biochemical. The following applies: for time dependence of the level of inhibition: incubation time 0-60 min, inhibitor close to its IC50 concentration (Fig. S4).
The target in a further test is 3CL^pro (Severe acute respiratory syndrome coronavirus 2, UniProt P0DTD1). Description: LC-MS detection of 3CLpro-inhibitor covalent adducts. It counts as binding, SARS-CoV-2.

The source of these data is publication PMC8665847 (European Journal of Medicinal Chemistry, 2021).

What is called IC50 is the concentration that gives 50% inhibition. A word on the inhibition: it is the drop in the measured response relative to a control, in per cent. The low end stands for a weak effect, the high end for a strong effect.

Consider `CC(C)(C)NC(=O)C(c1cccnc1)N(C(=O)c1ccco1)c1ccc(C(C)(C)C)cc1` (stereo not drawn) [ML188, N-(4-(tert-butyl)phenyl)-N-(2-(tert-butylamino)-2-oxo-1-(pyridin-3-yl)ethyl)furan-2-carboxamide], for which the IC50 in the test with SARS-CoV 3CL^pro is […].

For `CC(C)(C)c1ccc(N(C(=O)CCl)C(C(=O)NC2CCCCC2)c2cccnc2)cc1` (stereo not drawn) [16a, N-(4-(tert-butyl)phenyl)-2-chloro-N-(2-(cyclohexylamino)-2-oxo-1-(pyridin-3-yl)ethyl) acetamide], the “time dependence of the level of inhibition” value on SARS-CoV-2 3CL^pro was “increased with incubation time”. On 3CL^pro, the “presence of 3CLpro-inhibitor adduct by LC-MS” value was “confirmed”.

In the case of `C=CS(=O)(=O)N(c1ccc(C(C)(C)C)cc1)[C@H](C(=O)N[C@@H](C)c1ccccc1)c1cccnc1` (mixture of isomers) [14h, (S)- and (R)-2-(N-(4-(tert-butyl)phenyl)vinylsulfonamido)-N-((S)-1-phenylethyl)-2-(pyridin-3-yl)acetamide], the inhibition at 50 µM at SARS-CoV-2 3CL^pro is more than 95%.

`CC(C)(C)c1ccc(N(C(=O)c2c[nH]cn2)C(C(=O)NC2CCCCC2)c2cccnc2)cc1` (stereo not drawn) [X77, N-(4-(tert-butyl)phenyl)-N-(2-(cyclohexylamino)-2-oxo-1-(pyridin-3-yl)ethyl)-1H-imidazole-5-carboxamide]: in the test on SARS-CoV 3CL^pro, the IC50 is 3.4 µM.

On SARS-CoV-2 3CL^pro, `C=CC(=O)N(c1ccc(C(C)(C)C)cc1)C(C(=O)NC1CCCCC1)c1cccnc1` (stereo not drawn) [6a, N-(4-(tert-butyl)phenyl)-N-(2-(cyclohexylamino)-2-oxo-1-(pyridin-3-yl)ethyl) acrylamide] registered a concentration for half-maximal inhibition (IC50) of 11.1 ± 1.5 µM.

In the case of `C=CS(=O)(=O)N(c1ccc(C(C)(C)C)cc1)C(C(=O)NC1CCCCC1)c1cccnc1` (stereo not drawn) [14a, 2-(N-(4-(tert-butyl)phenyl)vinylsulfonamido)-N-cyclohexyl-2-(pyridin-3-yl)acetamide], at SARS-CoV-2 3CL^pro, the midpoint of inhibition, the IC50, lay at 0.5 µM and the “time dependence of the level of inhibition” value is recorded as “increased with incubation time”. The “presence of 3CLpro-inhibitor adduct by LC-MS” value on 3CL^pro is “confirmed”.

As to `CC(C)(C)c1ccc(N(C(=O)C#CCO)C(C(=O)NC2CCCCC2)c2cccnc2)cc1` (stereo not drawn) [23a, N-(4-(tert-butyl)phenyl)-N-(2-(cyclohexylamino)-2-oxo-1-(pyridin-3-yl)ethyl)-4-hydroxybut-2-ynamide], the “improvement in potency over alkynylamide analogue 13a” value on SARS-CoV-2 3CL^pro (ratio of IC50) is given as approximately 10 fold.

`C=CS(=O)(=O)N(c1ccc(C(C)(C)C)cc1)[C@@H](C(=O)N[C@@H](C)c1ccccc1)c1cccnc1` (mixture of isomers) [14g, (S)- and (R)-2-(N-(4-(tert-butyl)phenyl)vinylsulfonamido)-N-((S)-1-phenylethyl)-2-(pyridin-3-yl)acetamide]: on SARS-CoV-2 3CL^pro, the inhibition at 50 µM is more than 95%. The “times more potent than diastereomer 14h” value at SARS-CoV-2 3CL^pro (ratio of IC50) is listed as “approximately 20 times”.
